Results taken from patent US20260232682A1, “GSPT1 DEGRADER COMPOUNDS” (Captor Therapeutics S.A., priority 2023, published 2026).

Tests used:
[1] = target: CRBN/DDB1 protein complex (Homo sapiens, UniProt Q96SW2); experiment: CRBN displacement TR-FRET assay; settings: Thalidomide-Red tracer, 6×His-CRBN/DDB1; read-out: CRBN binding Ki
Method in brief: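 Test compound at various concentrations competed with 6.8 nM Thalidomide-Red tracer for 5 nM 6×His-CRBN/DDB1, detected with 0.5 nM anti-His-Eu cryptate in buffer with 1 mM DTT and 1% DMSO. Incubation ran 180 min at room temperature with a time-resolved fluorescence read-out. IC50 values were converted to Ki by Cheng–Prusoff using tracer Kd and protein and tracer concentrations.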

[2] = target: [CK1α]-[compound]-[CRBN/DDB1] ternary complex (Homo sapiens, UniProt P48729+Q96SW2); experiment: AlphaLISA assay for off-target recruitment detection, CK1α; type: binding; settings: 1 μM compound; normalized to FPFT-2216; read-out: Normalized ternary complex response, CK1α
Sequence of [CK1α]-[compound]-[CRBN/DDB1] ternary complex (P48729 whole entry): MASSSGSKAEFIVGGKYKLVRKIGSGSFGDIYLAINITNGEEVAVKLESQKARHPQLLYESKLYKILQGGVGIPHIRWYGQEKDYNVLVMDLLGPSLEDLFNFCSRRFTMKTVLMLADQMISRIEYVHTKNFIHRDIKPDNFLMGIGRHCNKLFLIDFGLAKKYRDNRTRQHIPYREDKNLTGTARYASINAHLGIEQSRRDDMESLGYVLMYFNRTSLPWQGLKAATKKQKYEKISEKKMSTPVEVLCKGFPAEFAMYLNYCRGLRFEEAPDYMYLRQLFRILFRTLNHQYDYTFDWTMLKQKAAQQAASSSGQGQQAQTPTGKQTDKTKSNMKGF
Sequence of [CK1α]-[compound]-[CRBN/DDB1] ternary complex (Q96SW2 whole entry): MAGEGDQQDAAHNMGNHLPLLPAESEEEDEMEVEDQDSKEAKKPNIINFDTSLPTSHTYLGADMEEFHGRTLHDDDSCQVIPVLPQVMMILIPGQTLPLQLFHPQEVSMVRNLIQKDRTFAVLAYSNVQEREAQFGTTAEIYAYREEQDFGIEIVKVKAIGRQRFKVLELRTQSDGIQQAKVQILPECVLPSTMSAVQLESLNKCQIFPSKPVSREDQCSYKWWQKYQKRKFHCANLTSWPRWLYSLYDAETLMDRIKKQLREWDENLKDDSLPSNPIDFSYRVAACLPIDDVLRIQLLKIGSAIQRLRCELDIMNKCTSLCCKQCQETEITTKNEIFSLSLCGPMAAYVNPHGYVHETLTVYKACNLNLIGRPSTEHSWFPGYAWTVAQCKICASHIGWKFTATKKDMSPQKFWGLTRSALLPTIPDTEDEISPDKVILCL
Sequence of [CK1α]-[compound]-[CRBN/DDB1] ternary complex (Q16531 whole entry partner): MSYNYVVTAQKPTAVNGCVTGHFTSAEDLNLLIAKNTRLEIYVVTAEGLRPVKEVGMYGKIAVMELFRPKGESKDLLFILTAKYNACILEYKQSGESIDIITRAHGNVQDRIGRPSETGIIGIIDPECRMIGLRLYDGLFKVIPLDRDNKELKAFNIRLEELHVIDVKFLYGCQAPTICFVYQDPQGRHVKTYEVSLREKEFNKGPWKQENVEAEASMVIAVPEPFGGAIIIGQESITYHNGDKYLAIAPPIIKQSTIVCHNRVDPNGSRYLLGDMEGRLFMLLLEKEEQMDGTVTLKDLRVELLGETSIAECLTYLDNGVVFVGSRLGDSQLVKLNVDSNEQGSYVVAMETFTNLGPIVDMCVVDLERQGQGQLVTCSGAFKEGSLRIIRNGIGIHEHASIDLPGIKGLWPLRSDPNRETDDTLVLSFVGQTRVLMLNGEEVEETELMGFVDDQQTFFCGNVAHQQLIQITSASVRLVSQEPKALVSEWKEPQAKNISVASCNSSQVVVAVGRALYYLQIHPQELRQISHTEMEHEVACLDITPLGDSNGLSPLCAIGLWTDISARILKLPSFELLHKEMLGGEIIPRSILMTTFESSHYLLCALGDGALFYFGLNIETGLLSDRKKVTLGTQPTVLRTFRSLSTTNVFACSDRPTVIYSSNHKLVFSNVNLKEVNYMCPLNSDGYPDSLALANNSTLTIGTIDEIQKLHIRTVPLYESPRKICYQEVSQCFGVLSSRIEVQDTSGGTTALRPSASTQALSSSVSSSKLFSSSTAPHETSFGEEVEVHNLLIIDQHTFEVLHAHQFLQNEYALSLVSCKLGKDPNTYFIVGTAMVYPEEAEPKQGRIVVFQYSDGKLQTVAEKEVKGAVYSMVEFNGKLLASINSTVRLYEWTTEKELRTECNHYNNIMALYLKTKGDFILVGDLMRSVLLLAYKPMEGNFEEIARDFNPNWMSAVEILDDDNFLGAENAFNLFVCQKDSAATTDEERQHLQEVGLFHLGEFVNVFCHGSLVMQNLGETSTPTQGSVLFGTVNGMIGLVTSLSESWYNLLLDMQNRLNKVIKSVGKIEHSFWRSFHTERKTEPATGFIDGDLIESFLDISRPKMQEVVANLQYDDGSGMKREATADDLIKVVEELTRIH
Method in brief: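 Neo-substrate with 40 μg/ml donor beads and 200 nM 6×His-CRBN/DDB1 with 40 μg/ml anti-His acceptor beads were each prepared in PBS pH 7.4 with Tween-20 and 1 mM DTT, preincubated 30 min at RT, then mixed. Compounds at 2% DMSO were incubated 30 min at 25 °C, read at 680/615 nm, and normalised between DMSO background and reference glue maximum.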

[3] = target: T1, GSPT1-HiBiT protein in GSPT1-HiBiT HEK293 cells (Homo sapiens, UniProt P15170+Q96SW2); experiment: GSPT1 degradation assay using HiBiT system (Nano-Glo HiBiT lytic assay); type: cell-based; settings: 6 hours treatment; for DC50: read-out: HiBiT lytic assay Geomean absolute DC50
T1 construct: endogenous in cells; host or cells: HEK293 (CRISPR/Cas9 knock-in of HiBiT at the GSPT1 locus)
T1 sequence (P15170 whole entry): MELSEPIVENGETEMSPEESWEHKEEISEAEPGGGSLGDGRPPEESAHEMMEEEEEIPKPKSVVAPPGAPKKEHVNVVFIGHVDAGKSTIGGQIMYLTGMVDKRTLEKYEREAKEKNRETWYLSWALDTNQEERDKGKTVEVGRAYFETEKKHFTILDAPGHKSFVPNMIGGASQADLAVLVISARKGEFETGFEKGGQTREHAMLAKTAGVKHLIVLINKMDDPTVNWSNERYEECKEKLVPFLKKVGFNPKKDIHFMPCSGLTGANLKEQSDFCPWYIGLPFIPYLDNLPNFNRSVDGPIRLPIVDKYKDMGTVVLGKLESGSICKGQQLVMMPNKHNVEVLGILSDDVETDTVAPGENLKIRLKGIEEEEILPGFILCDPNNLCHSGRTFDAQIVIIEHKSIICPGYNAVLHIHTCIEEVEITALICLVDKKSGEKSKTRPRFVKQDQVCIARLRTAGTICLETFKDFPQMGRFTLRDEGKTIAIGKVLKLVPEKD
T1 sequence (Q96SW2 whole entry): as the sequence (Q96SW2 whole entry) above
T1 sequence (Q16531 whole entry partner): as the sequence (Q16531 whole entry partner) above
Excerpt: The effect of selected compounds of the invention on GSPT1 protein levels was investigated, using the GSPT1-HiBiT HEK293 cell line and the Nano-Glo HiBiT degradation assay protocol below.
GSPT1-HiBiT HEK293 cells were generated in-house using the HEK293 parental cells (ATCC, cat. no 70016364) and the CRISPR/Cas9 system. HEK293 cells were transformed with pSpCas9-BB-2A-Puro v2.0 plasmid carrying gRNA targeting the C-terminus of GSPT1 and ssODN template containing the HiBiT tag sequence with flanking homology sequences. Neon Transfection System (Thermo Fisher Scientific) was used for electroporation. HEK293 GSPT1-HiBiT cells were cultured with DMEM Glutamax (Gibco) supplemented with 10% heat inactivated FBS (Gibco). After transfection the culture medium was changed to DMEM Glutamax with 10% heat-inactivated FBS and 1% Penicillin-Streptomycin (Biowest) supplemented with Puromycin (2 μg/ml; Invivogen) for clonal selection. In order to isolate single cell clones for further validation and analysis, limiting dilution cloning in 96-well plates was performed. When the single clones reached confluency, HiBiT Lytic Assay (Promega) was performed in order to identify HiBiT positive clones. The clone selected for further studies was verified and validated using genotyping and HiBiT Blotting (Promega).
Cells were maintained in DMEM Glutamax medium, supplemented with 1% penicillin/streptomycin and 10% Fetal Bovine Serum (FBS) at 37° C., 5% CO2. Compounds were stored frozen as 20 mM DMSO stocks.
For the Nano-Glo HiBiT assay, cells were seeded onto 384-well white solid bottom plate at 2×10^3 cells/well in 40 μL using the Agilent BioTek MultiFlo FX Multimode Dispenser and incubated overnight. Following overnight incubation (37° C., 5% CO2) cells were treated with the test compounds and vehicle only (DMSO) control using the Echo 555 Liquid Handler. Twelve data-point compound titration curve with concentrations ranging from 10 μM to 0.03 nM was used. Final DMSO concentration was kept constant at 0.25% v/v across the assay plate. After 6 hours of incubation (37° C., 5% CO2), plates were removed from the incubator and let to equilibrate to RT. Luminescent signal detection was conducted using the Nano-Glo HiBiT Lytic Detection System (Promega, cat. nr N3050). Nano-Glo HiBiT Lytic Reagent was prepared freshly by diluting the LgBiT Protein (1:100 vol/vol) and the Nano-Glo HiBiT Lytic Substrate (1:50 vol/vol) in the relevant volume of the Nano-Glo HiBiT Lytic Buffer. 40 μL of the HiBiT Lytic Reagent was added per well, plates were shaken to facilitate lysis (350 rpm, 5 min, RT) and incubated in the dark for the following 10 min. Luminescence was read using the PHERAstar multimode plate reader (BMG LABTECH). The raw data (the relative luminescence unit values, RLU) were uploaded under the relevant protocol and analysed in CDDVault data management platform. Luminescence (RLU) values were normalized to the controls, and reported absolute DC50 values and Dmax values were calculated in CDDVault using non-linear regression and appropriate equations.

Sequence of CRBN/DDB1 protein complex (Q96SW2 whole entry, species assumed): as the sequence (Q96SW2 whole entry) above
Sequence of CRBN/DDB1 protein complex (Q16531 whole entry partner, species assumed): as the sequence (Q16531 whole entry partner) above

Row | Compound | Ki [1] [µM] | activation at 1 µM [2] [%] | Dmax [3] [%] | DC50 [3] [µM]
1 | Cc1nc2cc(COC(=O)Nc3ccc4c(c3)OCO4)ccc2cc1C1CCC(=O)NC1=O (stereo not shown) [Compound 14, (3-(2,6-dioxopiperidin-3-yl)-2-methylquinolin-7-yl)methyl benzo[d][1,3]dioxol-5-ylcarbamate] | > 1 | < 10 | ≥ 75 | 0.01 to 0.05
2 | Cc1ccc(NC(=O)OCc2ccc3nc(C)c(N4CCC(=O)NC4=O)cc3c2)cc1Cl [Compound 29, (3-(2,4-dioxotetrahydropyrimidin-1(2H)-yl)-2-methylquinolin-6-yl)methyl (3-chloro-4-methylphenyl)carbamate] | < 0.5 | < 10 | ≥ 75 | 0.01 to 0.05
3 | COc1ccc(NC(=O)OCc2ccc3cc(C4CCC(=O)NC4=O)c(C)nc3c2)nn1 (stereo not shown) [Compound 45, (3-(2,6-dioxopiperidin-3-yl)-2-methylquinolin-7-yl)methyl (6-methoxypyridazin-3-yl)carbamate] | > 1 | < 10 | ≥ 75 | 0.01 to 0.05
4 | Cc1ccc(NC(=O)OCc2ccc3cc(C4(F)CCC(=O)NC4=O)c(C)nc3c2)cc1Cl (stereo not shown) [Compound 74, (3-(3-fluoro-2,6-dioxopiperidin-3-yl)-2-methylquinolin-7-yl)methyl (3-chloro-4-methylphenyl)carbamate] | > 1 | < 10 | ≥ 75 | > 0.1
5 | Cc1ccc(NC(=O)OCc2ccc3cc(C4CCC(=O)NC4=O)c(C)nc3c2F)cc1Cl (stereo not shown) [Compound 50, (3-(2,6-dioxopiperidin-3-yl)-8-fluoro-2-methylquinolin-7-yl)methyl (3-chloro-4-methylphenyl)carbamate] | 0.5 to 1 | < 10 | ≥ 75 | 0.01 to 0.05
6 | Cc1nc2ccc(CNC(=O)Nc3cc(C(C)(C)C)no3)cc2cc1N1CCC(=O)NC1=O [Compound 67, 1-(3-(tert-butyl)isoxazol-5-yl)-3-((3-(2,4-dioxotetrahydropyrimidin-1(2H)-yl)-2-methylquinolin-6-yl)methyl)urea] | < 0.5 | 10 to 25 | ≥ 75 | 0.01 to 0.05
7 | Cc1nc2cc(COC(=O)Nc3ccc(C(C)(C)C)c(Cl)c3)ccc2cc1C1CCC(=O)NC1=O (stereo not shown) [Compound 10, (3-(2,6-dioxopiperidin-3-yl)-2-methylquinolin-7-yl)methyl (4-(tert-butyl)-3-chlorophenyl)carbamate] | < 0.5 | < 10 | ≥ 75 | < 0.01
8 | Cc1nc2ccc(COC(=O)Nc3cc(C(C)(C)C)no3)cc2cc1N1CCC(=O)NC1=O [Compound 66, (3-(2,4-dioxotetrahydropyrimidin-1(2H)-yl)-2-methylquinolin-6-yl)methyl (3-(tert-butyl)isoxazol-5-yl)carbamate] | < 0.5 | 10 to 25 | ≥ 75 | 0.01 to 0.05
9 | Cc1ccc(NC(=O)NCc2ccc3nc(C)c(N4CCC(=O)NC4=O)cc3c2)cc1Cl [Compound 51, 1-(3-chloro-4-methylphenyl)-3-((3-(2,4-dioxotetrahydropyrimidin-1(2H)-yl)-2-methylquinolin-6-yl)methyl)urea] | < 0.5 | < 10 | ≥ 75 | 0.01 to 0.05
10 | Cc1nc2cc(COC(=O)Nc3cc(C(F)(F)F)n[nH]3)ccc2cc1C1CCC(=O)NC1=O (stereo not shown) [Compound 69, (3-(2,6-dioxopiperidin-3-yl)-2-methylquinolin-7-yl)methyl (3-(trifluoromethyl)-1H-pyrazol-5-yl)carbamate] | > 1 | < 10 | ≥ 75 | 0.01 to 0.05
11 | Cc1nc2cc(COC(=O)Nc3nc(C(C)(C)C)no3)ccc2cc1C1CCC(=O)NC1=O (stereo not shown) [Compound 80, (3-(2,6-dioxopiperidin-3-yl)-2-methylquinolin-7-yl)methyl (3-(tert-butyl)-1,2,4-oxadiazol-5-yl)carbamate] | 0.5 to 1 | < 10 | ≥ 75 | 0.01 to 0.05
12 | Cc1nc2cc(COC(=O)Nc3cccc(OC(F)(F)F)c3)ccc2cc1C1CCC(=O)NC1=O (stereo not shown) [Compound 19, (3-(2,6-dioxopiperidin-3-yl)-2-methylquinolin-7-yl)methyl (3-(trifluoromethoxy)phenyl)carbamate] | > 1 | < 10 | ≥ 75 | < 0.01
13 | Cc1nc2cc(COC(=O)Nc3cc(C(F)(F)F)no3)ccc2cc1C1CCC(=O)NC1=O (stereo not shown) [Compound 71, (3-(2,6-dioxopiperidin-3-yl)-2-methylquinolin-7-yl)methyl (3-(trifluoromethyl)isoxazol-5-yl)carbamate] | > 1 | < 10 | ≥ 75 | 0.05 to 0.1
14 | Cc1nc2cc(COC(=O)Nc3cccc(C(C)(C)C)c3)ccc2cc1C1CCC(=O)NC1=O (stereo not shown) [Compound 9, (3-(2,6-dioxopiperidin-3-yl)-2-methylquinolin-7-yl)methyl (3-(tert-butyl)phenyl)carbamate] | > 1 | < 10 | ≥ 75 | 0.01 to 0.05
15 | COc1ccc(NC(=O)OCc2ccc3cc(C4CCC(=O)NC4=O)c(C)nc3c2)cc1Cl (stereo not shown) [Compound 11, (3-(2,6-dioxopiperidin-3-yl)-2-methylquinolin-7-yl)methyl (3-chloro-4-methoxyphenyl)carbamate] | > 1 | < 10 | ≥ 75 | < 0.01
16 | Cc1ccc(NC(=O)OCc2cc3nc(C)c(C4CCC(=O)NC4=O)cc3cc2F)cc1Cl (stereo not shown) [Compound 49, (3-(2,6-dioxopiperidin-3-yl)-6-fluoro-2-methylquinolin-7-yl)methyl (3-chloro-4-methylphenyl)carbamate] | > 1 | < 10 | ≥ 75 | 0.05 to 0.1
17 | COc1cc(C)c(Cl)cc1NC(=O)OCc1ccc2cc(C3CCC(=O)NC3=O)c(C)nc2c1 (stereo not shown) [Compound 21, (3-(2,6-dioxopiperidin-3-yl)-2-methylquinolin-7-yl)methyl (5-chloro-2-methoxy-4-methylphenyl)carbamate] | 0.5 to 1 | < 10 | ≥ 75 | 0.01 to 0.05
18 | Cc1nc2cc(COC(=O)Nc3ccc(N4CCOCC4)nc3)ccc2cc1C1CCC(=O)NC1=O (stereo not shown) [Compound 42, (3-(2,6-dioxopiperidin-3-yl)-2-methylquinolin-7-yl)methyl (6-morpholinopyridin-3-yl)carbamate] | < 0.5 | < 10 | ≥ 75 | 0.01 to 0.05
19 | Cc1nc2cc(COC(=O)Nc3cc(C(C)(C)C)on3)ccc2cc1C1CCC(=O)NC1=O (stereo not shown) [Compound 70, (3-(2,6-dioxopiperidin-3-yl)-2-methylquinolin-7-yl)methyl (5-(tert-butyl)isoxazol-3-yl)carbamate] | < 0.5 | < 10 | ≥ 75 | < 0.01
